In patent US5492839A (priority 1994, dated 1996):
Like-named read-outs stand apart in the source and are kept apart here.

Tests used:
[1] = system: anti-ryanodine antibodies; test: Competitive radioimmunoassay: inhibition of [3H]ryanodine-antibody binding (dextran-coated charcoal assay); set-up: species or system rabbit; details: for binds times less tightly than ryanodine (antibody): relative to ryanodine
Procedure: Binding was performed in triplicate in 1.5 ml polypropylene tubes. […] Following the addition of serial dilutions of antibody, the tubes were shaken and incubated for 1 h at room temperature. The tubes were placed on ice for 10 min and then 0.2 ml of stirred, ice-cold dextran-coated charcoal (0.0625% Dextran T-70, 0.625% Norit A charcoal in TSG) was added to each tube. The tubes were shaken and incubated for an additional 10 min on ice. […] Controls without antiserum were included to determine the amount of radiolabel that could not be precipitated by the charcoal.
Ryanodine derivatives were prepared by serial dilution in TSG.

[2] = molecular target: T1, skeletal muscle ryanodine receptor (Oryctolagus cuniculus, UniProt P11716); test: [3H]Ryanodine competition binding to rabbit skeletal muscle triads
T1 construct: Rabbit skeletal muscle triads were prepared as previously described; from tissue; host or cells: rabbit skeletal muscle triads
Procedure: Rabbit skeletal muscle triads were prepared as previously described (Sharp et al., J. Biol. Chem. 262: 12309-12315 (1987)). […]

[3] = molecular target: T2, cardiac ryanodine receptor (cardiac membranes) (Canis lupus familiaris, UniProt A0A8I3MT21); test: [3H]Ryanodine competition binding to cardiac membranes; set-up: species or system canine
T2 construct: Canine cardiac junctional SR vesicles were isolated as described previously; from tissue; host or cells: canine cardiac junctional SR vesicles / cardiac microsomes
Excerpt: (§1) Canine cardiac junctional SR vesicles were isolated as described previously (Witcher et al., J. Biol. Chem. 266, 1114-11152 (1991)). Crude rabbit brain membranes were purified as previously described (Witcher et al., J. Biol. Chem. 267, 4963-4967 (1992)).

[4] = molecular target: T3, brain ryanodine receptor (brain membranes) (Oryctolagus cuniculus, UniProt P30957); test: [3H]Ryanodine competition binding to brain membranes; set-up: species or system rabbit
T3 construct: Crude rabbit brain membranes were purified as previously described; from tissue; host or cells: crude rabbit brain membranes (microsomes)
Excerpt: as §1

[5] = molecular target: T1, skeletal muscle ryanodine receptor; test: Photoaffinity labeling of skeletal muscle triads with [3H]ABRy; type: binding, rabbit
Procedure: Since [^3 H]ABRy contains a photoactivatable azido group, this compound was used to covalently label skeletal muscle triads following equilibrium binding. […] The membranes were then pelleted at 400,000×g for 15 min and resuspended in 1 ml of the binding buffer with 5 mM glutathione. The samples were placed in a plastic petri dish at 4° C. and were exposed to UV light (365 nm) at a distance of 1 cm for 45 min. The membranes were then centrifuged in a microfuge at maximum speed for 15 min. at 4° C. The pellets were resuspended in Laemmli sample buffer.
The proteins were then analyzed by SDS-PAGE (3-12% gradient gels) using the buffer system of Laemmli (Nature 227, 680-685 (1970)). Gels were stained with Coomassie blue or transferred to nitrocellulose for immunoblot analysis as previously described (Witcher et al., Science 261, 486-489 (1993)). […] Gels used for fluorography were first stained with Coomassie blue, destained, soaked in Enlightning (DuPont), and dried under vacuum. The dried gels were then exposed to Kodak XAR-5 film at -80° C. The fluorograms were also analyzed densitometrically using a Molecular Dynamics Model 300A scanning densitometer.

[6] = 1 nM [3H]ryanodine, 1:8,000 dilution of anti-ryanodine antibody, read-out: Inhibition of [^3 H] ryanodine-antibody binding, IC50
[7] = from FIG. 5, unit inferred, read-out: IC50 for binding to anti-ryanodine antibodies
[8] = IC50 for binding to the ryanodine receptor, rabbit skeletal membranes, from FIG. 5, unit inferred

T1 sequence (P11716 whole entry): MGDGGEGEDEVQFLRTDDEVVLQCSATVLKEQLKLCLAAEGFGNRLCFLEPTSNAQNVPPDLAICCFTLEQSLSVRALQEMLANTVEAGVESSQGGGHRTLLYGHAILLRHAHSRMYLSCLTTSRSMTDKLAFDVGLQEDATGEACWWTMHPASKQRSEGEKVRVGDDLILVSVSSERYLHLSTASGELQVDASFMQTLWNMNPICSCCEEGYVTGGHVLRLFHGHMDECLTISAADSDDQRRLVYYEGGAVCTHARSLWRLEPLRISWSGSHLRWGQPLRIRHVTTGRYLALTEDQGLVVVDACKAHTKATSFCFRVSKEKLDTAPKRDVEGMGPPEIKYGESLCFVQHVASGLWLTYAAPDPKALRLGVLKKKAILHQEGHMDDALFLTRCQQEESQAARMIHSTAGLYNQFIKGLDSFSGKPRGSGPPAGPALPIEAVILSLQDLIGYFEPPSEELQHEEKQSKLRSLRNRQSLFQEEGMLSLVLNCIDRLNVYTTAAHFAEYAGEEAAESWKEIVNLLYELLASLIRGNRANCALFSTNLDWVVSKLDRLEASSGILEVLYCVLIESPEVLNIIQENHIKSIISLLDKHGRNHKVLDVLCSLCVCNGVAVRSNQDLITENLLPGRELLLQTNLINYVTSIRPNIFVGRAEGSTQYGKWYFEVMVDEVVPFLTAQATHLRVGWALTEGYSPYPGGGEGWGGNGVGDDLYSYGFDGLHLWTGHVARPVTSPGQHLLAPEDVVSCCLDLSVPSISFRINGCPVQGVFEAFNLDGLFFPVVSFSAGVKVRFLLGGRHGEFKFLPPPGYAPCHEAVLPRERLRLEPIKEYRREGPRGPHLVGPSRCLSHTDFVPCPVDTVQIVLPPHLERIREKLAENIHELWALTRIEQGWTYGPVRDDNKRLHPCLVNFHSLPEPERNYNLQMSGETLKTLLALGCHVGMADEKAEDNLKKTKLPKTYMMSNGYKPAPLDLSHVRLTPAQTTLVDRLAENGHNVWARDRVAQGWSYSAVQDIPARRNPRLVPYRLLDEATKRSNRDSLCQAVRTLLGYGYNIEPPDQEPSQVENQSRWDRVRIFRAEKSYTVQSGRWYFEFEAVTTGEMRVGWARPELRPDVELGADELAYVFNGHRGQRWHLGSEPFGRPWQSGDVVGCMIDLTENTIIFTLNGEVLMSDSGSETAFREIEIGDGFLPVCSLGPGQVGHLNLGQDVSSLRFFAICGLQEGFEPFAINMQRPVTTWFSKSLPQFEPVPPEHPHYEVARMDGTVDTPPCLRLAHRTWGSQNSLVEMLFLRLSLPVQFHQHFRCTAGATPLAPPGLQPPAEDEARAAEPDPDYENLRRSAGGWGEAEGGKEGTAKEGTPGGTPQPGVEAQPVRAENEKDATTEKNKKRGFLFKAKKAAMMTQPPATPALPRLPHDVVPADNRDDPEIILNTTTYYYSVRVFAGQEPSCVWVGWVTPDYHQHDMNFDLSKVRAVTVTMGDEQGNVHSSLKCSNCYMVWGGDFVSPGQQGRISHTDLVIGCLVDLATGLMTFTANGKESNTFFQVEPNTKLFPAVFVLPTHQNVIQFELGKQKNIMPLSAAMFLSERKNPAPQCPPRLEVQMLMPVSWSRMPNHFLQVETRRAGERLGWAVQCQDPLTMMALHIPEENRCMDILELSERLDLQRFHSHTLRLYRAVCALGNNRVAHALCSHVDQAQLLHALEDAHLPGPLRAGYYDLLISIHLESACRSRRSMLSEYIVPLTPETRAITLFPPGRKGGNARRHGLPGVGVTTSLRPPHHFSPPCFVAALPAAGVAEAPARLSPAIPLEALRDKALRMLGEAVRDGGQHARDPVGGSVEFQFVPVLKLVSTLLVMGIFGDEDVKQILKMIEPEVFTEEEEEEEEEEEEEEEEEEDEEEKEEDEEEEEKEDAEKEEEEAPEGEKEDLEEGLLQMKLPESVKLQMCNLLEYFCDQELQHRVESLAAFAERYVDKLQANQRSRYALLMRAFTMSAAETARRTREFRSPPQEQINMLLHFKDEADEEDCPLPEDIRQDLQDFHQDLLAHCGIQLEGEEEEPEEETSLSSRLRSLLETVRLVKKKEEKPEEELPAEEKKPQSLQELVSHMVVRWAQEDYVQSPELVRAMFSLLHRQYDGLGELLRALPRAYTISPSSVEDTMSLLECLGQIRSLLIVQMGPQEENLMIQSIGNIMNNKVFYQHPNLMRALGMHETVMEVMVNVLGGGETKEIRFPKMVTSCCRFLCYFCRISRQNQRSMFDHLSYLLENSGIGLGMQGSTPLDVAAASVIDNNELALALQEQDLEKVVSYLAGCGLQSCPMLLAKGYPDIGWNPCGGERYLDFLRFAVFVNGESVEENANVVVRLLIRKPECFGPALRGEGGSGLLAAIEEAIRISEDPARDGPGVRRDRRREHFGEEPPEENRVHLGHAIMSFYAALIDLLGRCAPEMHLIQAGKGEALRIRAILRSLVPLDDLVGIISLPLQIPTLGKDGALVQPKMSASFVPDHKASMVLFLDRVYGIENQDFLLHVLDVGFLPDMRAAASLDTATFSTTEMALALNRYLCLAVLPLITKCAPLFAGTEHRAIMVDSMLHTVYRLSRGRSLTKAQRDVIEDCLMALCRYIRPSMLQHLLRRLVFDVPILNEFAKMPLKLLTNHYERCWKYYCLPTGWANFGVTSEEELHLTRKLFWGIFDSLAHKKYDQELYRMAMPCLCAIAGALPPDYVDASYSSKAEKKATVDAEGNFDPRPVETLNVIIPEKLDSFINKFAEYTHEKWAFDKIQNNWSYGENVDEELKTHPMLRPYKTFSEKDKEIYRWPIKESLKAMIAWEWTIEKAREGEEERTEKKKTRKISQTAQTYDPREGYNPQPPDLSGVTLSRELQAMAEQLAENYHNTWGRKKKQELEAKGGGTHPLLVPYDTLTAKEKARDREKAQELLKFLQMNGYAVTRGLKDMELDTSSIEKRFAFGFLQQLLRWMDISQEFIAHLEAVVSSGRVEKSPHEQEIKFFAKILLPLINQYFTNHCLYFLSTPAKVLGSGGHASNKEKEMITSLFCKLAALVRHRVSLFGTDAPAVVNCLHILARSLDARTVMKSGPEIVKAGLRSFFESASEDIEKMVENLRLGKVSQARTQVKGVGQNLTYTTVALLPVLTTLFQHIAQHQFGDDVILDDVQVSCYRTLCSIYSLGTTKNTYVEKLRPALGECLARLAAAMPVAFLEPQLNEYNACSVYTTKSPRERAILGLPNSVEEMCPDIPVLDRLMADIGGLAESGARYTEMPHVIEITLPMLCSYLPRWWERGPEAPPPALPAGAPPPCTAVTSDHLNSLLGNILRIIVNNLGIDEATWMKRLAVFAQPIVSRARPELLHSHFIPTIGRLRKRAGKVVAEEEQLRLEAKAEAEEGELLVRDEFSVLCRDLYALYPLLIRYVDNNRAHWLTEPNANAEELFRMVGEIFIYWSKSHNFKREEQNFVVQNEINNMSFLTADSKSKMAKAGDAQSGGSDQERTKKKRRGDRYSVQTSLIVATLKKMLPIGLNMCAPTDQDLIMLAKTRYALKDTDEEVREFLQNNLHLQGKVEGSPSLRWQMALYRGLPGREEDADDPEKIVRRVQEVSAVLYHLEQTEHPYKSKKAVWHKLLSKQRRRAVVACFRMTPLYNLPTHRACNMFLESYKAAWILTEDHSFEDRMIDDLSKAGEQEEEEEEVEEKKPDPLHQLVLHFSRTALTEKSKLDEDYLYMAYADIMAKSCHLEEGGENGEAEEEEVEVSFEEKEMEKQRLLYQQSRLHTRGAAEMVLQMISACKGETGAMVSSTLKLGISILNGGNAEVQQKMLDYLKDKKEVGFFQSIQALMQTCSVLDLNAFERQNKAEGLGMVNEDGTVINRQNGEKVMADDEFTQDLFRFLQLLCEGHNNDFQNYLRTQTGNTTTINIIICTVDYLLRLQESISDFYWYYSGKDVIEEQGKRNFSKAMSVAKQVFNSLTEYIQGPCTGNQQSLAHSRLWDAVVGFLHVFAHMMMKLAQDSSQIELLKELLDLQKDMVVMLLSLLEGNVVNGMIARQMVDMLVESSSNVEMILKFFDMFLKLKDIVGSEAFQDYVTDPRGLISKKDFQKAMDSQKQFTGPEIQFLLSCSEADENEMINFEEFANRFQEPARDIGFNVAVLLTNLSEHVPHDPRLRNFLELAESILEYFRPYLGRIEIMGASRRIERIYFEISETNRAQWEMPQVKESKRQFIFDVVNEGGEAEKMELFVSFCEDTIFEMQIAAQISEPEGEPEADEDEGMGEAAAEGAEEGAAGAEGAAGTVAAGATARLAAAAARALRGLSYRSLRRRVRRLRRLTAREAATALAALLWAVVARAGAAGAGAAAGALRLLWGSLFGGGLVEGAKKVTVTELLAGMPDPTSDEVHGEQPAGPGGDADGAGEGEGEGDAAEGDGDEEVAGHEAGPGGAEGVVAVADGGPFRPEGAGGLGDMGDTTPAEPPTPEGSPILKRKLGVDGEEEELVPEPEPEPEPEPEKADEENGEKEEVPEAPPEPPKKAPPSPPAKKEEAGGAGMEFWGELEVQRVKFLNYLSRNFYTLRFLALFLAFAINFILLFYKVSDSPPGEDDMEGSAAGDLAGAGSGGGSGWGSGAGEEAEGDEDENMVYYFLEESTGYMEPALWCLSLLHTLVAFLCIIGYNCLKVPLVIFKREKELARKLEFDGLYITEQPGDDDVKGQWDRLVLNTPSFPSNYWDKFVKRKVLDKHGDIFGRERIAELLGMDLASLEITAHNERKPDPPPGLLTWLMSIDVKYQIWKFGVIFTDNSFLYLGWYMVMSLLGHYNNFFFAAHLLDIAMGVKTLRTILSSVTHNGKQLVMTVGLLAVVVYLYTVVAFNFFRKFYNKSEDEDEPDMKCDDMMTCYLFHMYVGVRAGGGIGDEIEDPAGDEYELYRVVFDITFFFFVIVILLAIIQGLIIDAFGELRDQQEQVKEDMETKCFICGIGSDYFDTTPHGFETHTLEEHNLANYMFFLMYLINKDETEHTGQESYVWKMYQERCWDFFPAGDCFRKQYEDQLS

Row | SMILES | binding to anti-ryanodine antibodies compared with ryanodine (words) [1] | IC50 [1, 6] [nM] | IC50 [1, 7] [nM] | binding to ryanodine receptor / skeletal membranes compared with ryanodine [2] | Kd ([1]; method of Muller, read-out: average antibody apparent dissociation constant (Kd) for the [3H]ryanodine-antibody complex) [nM] | binding to anti-ryanodine antibodies compared with ryanodine (words) ([1]; listed as compound 10) | IC50 [2, 8] [nM] | IC50 ([2]; half-maximal inhibition of [3H]ryanodine binding to triads, skeletal muscle triads, 1 nM [3H]ryanodine, 1 hr at 37° C.) [nM] | IC50 [3] [nM] | IC50 [4] [nM] | proteins bound (specificity, words) [5] | binds times less tightly than ryanodine (antibody) [1] | binding to anti-ryanodine antibodies compared with ryanodine (words) ([1]; listed as compound 12) | binding to anti-ryanodine antibodies compared with ryanodine (words) ([1]; listed as compound 11)
1 | CC1CCC2(O)C3(C)CC4(O)OC2(C1O)C1(O)C3(O)C(OC(=O)c2ccc[nH]2)C(O)(C(C)C)C41C (centres unmarked) [Ryanodine, reference compound] | highest affinity | 1.6 | < 10 | highest affinity |  |  |  |  |  |  |  |  |  | 
2 | CC1CCC2(O)C3(C)CC4(O)OC2(C1O)C1(O)C3(O)C(OC(=O)c2ccc[nH]2)C(O)(C(C)C)C41C (centres unmarked) [[^3 H]ryanodine, reference compound] |  |  |  |  | 1 |  |  |  |  |  |  |  |  | 
3 | CC1CCC2(O)C3(C)CC4(O)OC2(C1OC(=O)CCNC(=O)c1ccc(N=[N+]=[N-])cc1)C1(O)C3(O)C(OC(=O)c2ccc[nH]2)C(O)(C(C)C)C41C (centres unmarked) [Compound 10, 10-O-(3-[4-Azidobenzamido]-propionyl)-ryanodine] | very nearly matched the affinity of native ryanodine | 3.2 | < 100 | very nearly matched the affinity of native ryanodine |  | IC50 values similar to ryanodine | < 100 | ~37 | 89 | 25 | only is capable of binding to the 565 kDa ryanodine receptor/Ca^2+ release channel |  |  | 
4 | CC(C)C1(O)C(OC(=O)c2ccc[nH]2)C2(O)C3(C)CC4(O)OC5(C(O)C(CSCCCCO)CCC35O)C2(O)C41C (centres unmarked) [Compound 4, 21-(4-Hydroxybutylmercapto)-ryanodine] |  | 25 | < 1000 |  |  |  | < 1000 |  |  |  |  | about 10 times |  | 
5 | CC(C)C1(O)C(OC(=O)c2ccc[nH]2)C2(O)C3(C)CC4(O)OC5(C(O)C(CSCCOC(=O)C(=[N+]=[N-])C(F)(F)F)CCC35O)C2(O)C41C (centres unmarked) [Compound 7, 21-(2-[3,3,3-Trifluoro-2-diazopropionyloxy]-ethylmercapto)-ryanodine] | little effect on the IC50 | 4 | < 1000 |  |  |  | < 1000 |  |  |  |  |  |  | 
6 | CC(C)C1(O)C(OC(=O)c2ccc[nH]2)C2(O)C3(C)CC4(O)OC5(C(O)C(CSCCCCOC(=O)c6ccc(N=[N+]=[N-])cc6)CCC35O)C2(O)C41C (centres unmarked) [Compound 6] | lowest affinity | 198 | > 100 | lowest affinity |  |  | > 100 |  |  |  |  | ~100 times |  | 
7 | CC1CCC2(O)C3(C)CC4(O)OC2(C1OC(=O)CCNC(=O)c1ccc(C(=O)c2ccccc2)cc1)C1(O)C3(O)C(OC(=O)c2ccc[nH]2)C(O)(C(C)C)C41C (centres unmarked) [Compound 12, 10-O-(3-[4-benzoylbenzamido]-propionyl)-ryanodine] | very nearly matched the affinity of native ryanodine | 6 | < 100 | very nearly matched the affinity of native ryanodine |  |  | < 100 |  |  |  |  |  | IC50 values similar to ryanodine | 
8 | CC1CCC2(O)C3(C)CC4(O)OC2(C1OC(=O)CCNC(=O)c1cc(N=[N+]=[N-])ccc1[N+](=O)[O-])C1(O)C3(O)C(OC(=O)c2ccc[nH]2)C(O)(C(C)C)C41C (centres unmarked) [Compound 11, 10-O-(3-[2-Nitro-5-azidobenzamido]-propionyl)-ryanodine] | very nearly matched the affinity of native ryanodine | 3.2 | < 100 | very nearly matched the affinity of native ryanodine |  |  | < 100 |  |  |  |  |  |  | IC50 values similar to ryanodine
